Source: the supplement of paper PMC10307832

What was measured:
Experiment in all cases: relative viability (nuclei count vs DMSO), 5 days (fraction); higher = more cells survive
NCI-H1793 = tested on: NCI-H1793
Method in brief: (§1)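 Values are medians from duplicate plates. Each reflects relative viability, defined as the nuclei count of treated wells over that of vehicle wells. Lung cancer cell lines in 1536-well plates were pin-tool dosed one day after seeding with one drug alone or with a fixed anchor-drug dose plus five library-drug doses (not always all listed) in √10 steps, then fixed, stained and imaged at 4× after 5 days.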

NCI-H1395 = tested on: NCI-H1395
Method in brief: as §1

NCI-H2085 = tested on: NCI-H2085
Method in brief: as §1

H3255 = tested on: H3255
Method in brief: as §1

SK-MES-1 = tested on: SK-MES-1
Method in brief: as §1

ChaGo-K-1 = tested on: ChaGo-K-1
Method in brief: as §1

NCI-H520 = tested on: NCI-H520
Method in brief: as §1

COR-L23 = tested on: COR-L23
Method in brief: as §1

HCC-827 = tested on: HCC-827
Method in brief: as §1

NCI-H2405 = tested on: NCI-H2405
Method in brief: as §1

HCC-44 = tested on: HCC-44
Method in brief: as §1

NCI-H838 = tested on: NCI-H838
Method in brief: as §1

EMC-BAC-2 = tested on: EMC-BAC-2
Method in brief: as §1

NCI-H1651 = tested on: NCI-H1651
Method in brief: as §1

LU99A = tested on: LU99A
Method in brief: as §1

NCI-H2023 = tested on: NCI-H2023
Method in brief: as §1

NCI-H1944 = tested on: NCI-H1944
Method in brief: as §1

EPLC-272H = tested on: EPLC-272H
Method in brief: as §1

NCI-H2087 = tested on: NCI-H2087
Method in brief: as §1

`Cc1sc2c(c1C)C(c1ccc(Cl)cc1)=N[C@@H](CC(=O)OC(C)(C)C)c1nnc(C)n1-2` [JQ1] + CC1(C)CCC(c2ccc(Cl)cc2)=C(CN2CCN(c3ccc(C(=O)NS(=O)(=O)c4ccc(N[C@H](CCN5CCOCC5)CSc5ccccc5)c(S(=O)(=O)C(F)(F)F)c4)cc3)CC2)C1 [Navitoclax] (partner 0.5 µM) showed a relative viability (NCI-H1793; first compound 0.04 µM) of 0.408, a relative viability (NCI-H1793; first compound 0.1265 µM) of 0.345 and a relative viability (NCI-H1793; first compound 0.4 µM) of 0.515. For the same compound, the relative viability (NCI-H1793; first compound 1.265 µM) was 0.444, the relative viability (NCI-H1793; first compound 4 µM) was 0.377 and the relative viability (NCI-H1395; first compound 0.04 µM) was 1.13. For the same compound, the relative viability (NCI-H1395; first compound 0.1265 µM) was 1.03, the relative viability (NCI-H1395; first compound 0.4 µM) was 0.951 and the relative viability (NCI-H1395; first compound 1.265 µM) was 0.633. The relative viability (NCI-H1395; first compound 4 µM) was 0.516, the relative viability (NCI-H2085; first compound 0.04 µM) was 1.08 and the relative viability (NCI-H2085; first compound 0.1265 µM) was 1.1. It also gave a relative viability (NCI-H2085; first compound 0.4 µM) of 0.902, a relative viability (NCI-H2085; first compound 1.265 µM) of 0.561 and a relative viability (NCI-H2085; first compound 4 µM) of 0.643. The relative viability (H3255; first compound 0.04 µM) was 0.495, the relative viability (H3255; first compound 0.1265 µM) was 0.441 and the relative viability (H3255; first compound 0.4 µM) was 0.566. The relative viability (H3255; first compound 1.265 µM) was 0.268, the relative viability (H3255; first compound 4 µM) was 0.258 and the relative viability (SK-MES-1; first compound 0.04 µM) was 1.29. It also gave a relative viability (SK-MES-1; first compound 0.1265 µM) of 1.07, a relative viability (SK-MES-1; first compound 0.4 µM) of 1.12 and a relative viability (SK-MES-1; first compound 1.265 µM) of 0.477. For the same compound, the relative viability (SK-MES-1; first compound 4 µM) was 0.264, the relative viability (ChaGo-K-1; first compound 0.04 µM) was 1.08 and the relative viability (ChaGo-K-1; first compound 0.4 µM) was 0.868. For the same compound, the relative viability (ChaGo-K-1; first compound 1.265 µM) was 0.405, the relative viability (ChaGo-K-1; first compound 4 µM) was 0.481 and the relative viability (NCI-H520; first compound 0.04 µM) was 1.1. The relative viability (NCI-H520; first compound 0.1265 µM) was 1.19, the relative viability (NCI-H520; first compound 0.4 µM) was 0.905 and the relative viability (NCI-H520; first compound 1.265 µM) was 0.404. It also gave a relative viability (NCI-H520; first compound 4 µM) of 0.297, a relative viability (COR-L23; first compound 0.04 µM) of 1.02 and a relative viability (COR-L23; first compound 0.1265 µM) of 0.763. It also gave a relative viability (COR-L23; first compound 0.4 µM) of 0.858, a relative viability (COR-L23; first compound 1.265 µM) of 0.357 and a relative viability (COR-L23; first compound 4 µM) of 0.155. It also gave a relative viability (HCC-827; first compound 0.04 µM) of 0.95, a relative viability (HCC-827; first compound 0.4 µM) of 1.14 and a relative viability (HCC-827; first compound 1.265 µM) of 0.94. It also gave a relative viability (HCC-827; first compound 4 µM) of 0.689, a relative viability (NCI-H2405; first compound 0.04 µM) of 0.886 and a relative viability (NCI-H2405; first compound 0.4 µM) of 0.491. It also gave a relative viability (NCI-H2405; first compound 1.265 µM) of 0.136, a relative viability (NCI-H2405; first compound 4 µM) of 0.117 and a relative viability (HCC-44; first compound 0.04 µM) of 1.02. It also gave a relative viability (HCC-44; first compound 0.1265 µM) of 0.802, a relative viability (HCC-44; first compound 0.4 µM) of 0.705 and a relative viability (HCC-44; first compound 1.265 µM) of 0.265. It also gave a relative viability (HCC-44; first compound 4 µM) of 0.389, a relative viability (NCI-H838; first compound 0.04 µM) of 1.1 and a relative viability (NCI-H838; first compound 0.1265 µM) of 0.592. It also gave a relative viability (NCI-H838; first compound 0.4 µM) of 0.662, a relative viability (NCI-H838; first compound 1.265 µM) of 0.355 and a relative viability (NCI-H838; first compound 4 µM) of 0.247. The relative viability (EMC-BAC-2; first compound 0.04 µM) was 1.18, the relative viability (EMC-BAC-2; first compound 0.1265 µM) was 1.18 and the relative viability (EMC-BAC-2; first compound 0.4 µM) was 1.01. For the same compound, the relative viability (EMC-BAC-2; first compound 1.265 µM) was 0.61, the relative viability (EMC-BAC-2; first compound 4 µM) was 0.658 and the relative viability (NCI-H1651; first compound 0.04 µM) was 0.928. For the same compound, the relative viability (NCI-H1651; first compound 0.1265 µM) was 0.819, the relative viability (NCI-H1651; first compound 0.4 µM) was 0.701 and the relative viability (NCI-H1651; first compound 1.265 µM) was 0.525. For the same compound, the relative viability (NCI-H1651; first compound 4 µM) was 0.439, the relative viability (LU99A; first compound 0.04 µM) was 0.746 and the relative viability (LU99A; first compound 0.1265 µM) was 0.699. For the same compound, the relative viability (LU99A; first compound 0.4 µM) was 0.201, the relative viability (LU99A; first compound 1.265 µM) was 0.137 and the relative viability (LU99A; first compound 4 µM) was 0.146. For the same compound, the relative viability (NCI-H2023; first compound 0.04 µM) was 0.98, the relative viability (NCI-H2023; first compound 0.1265 µM) was 0.915 and the relative viability (NCI-H2023; first compound 0.4 µM) was 0.846. For the same compound, the relative viability (NCI-H2023; first compound 1.265 µM) was 0.334, the relative viability (NCI-H2023; first compound 4 µM) was 0.369 and the relative viability (NCI-H1944; first compound 0.04 µM) was 1.02. The relative viability (NCI-H1944; first compound 0.1265 µM) was 0.922, the relative viability (NCI-H1944; first compound 0.4 µM) was 1.07 and the relative viability (NCI-H1944; first compound 1.265 µM) was 0.762. For the same compound, the relative viability (NCI-H1944; first compound 4 µM) was 0.617, the relative viability (EPLC-272H; first compound 0.04 µM) was 1.14 and the relative viability (EPLC-272H; first compound 0.1265 µM) was 0.958. For the same compound, the relative viability (EPLC-272H; first compound 0.4 µM) was 1.06, the relative viability (EPLC-272H; first compound 1.265 µM) was 0.462 and the relative viability (EPLC-272H; first compound 4 µM) was 0.321. It also gave a relative viability (NCI-H2087; first compound 0.04 µM) of 1.03, a relative viability (NCI-H2087; first compound 0.4 µM) of 0.74 and a relative viability (NCI-H2087; first compound 1.265 µM) of 0.552. For the same compound, the relative viability (NCI-H2087; first compound 4 µM) was 0.502.
